Measurements reported in the NIST ThermoML archive (doi:10.1016/j.fluid.2005.08.001).
Numbers after ± are expanded uncertainties.

Assays:
[1] = 298.15 K; 101.33 kPa; Liquid
[2] = excess molar enthalpy (molar enthalpy of mixing); xn = mol fraction of the nth substance listed; conditions: 298.15 K, 101.33 kPa, Liquid, Flow calorimetry

Q: For `CCN(CC)CC` [triethylamine], which mass density [1] is on record?
A: 722.56 ± 0.41 kg/m3

Q: With `CCCCCC` [hexane] + CCCCO as the compound, how does the excess molar enthalpy ([2]; x2 = 0.0199) read?
A: 0.0527 ± 0.00167 kcal/mol

Q: And the excess molar enthalpy ([2]; x2 = 0.0399)?
A: 0.0685 ± 0.00215 kcal/mol

Q: What about the excess molar enthalpy ([2]; x2 = 0.05) of the same compound?
A: 0.0738 ± 0.00232 kcal/mol

Q: And the excess molar enthalpy ([2]; x2 = 0.06)?
A: 0.0783 ± 0.00239 kcal/mol

Q: What about the excess molar enthalpy ([2]; x2 = 0.0799) of the same compound?
A: 0.087 ± 0.00263 kcal/mol

Q: And the excess molar enthalpy ([2]; x2 = 0.0999)?
A: 0.0943 ± 0.00287 kcal/mol

Q: What about the excess molar enthalpy ([2]; x2 = 0.1499) of the same compound?
A: 0.11 ± 0.00335 kcal/mol

Q: What about the excess molar enthalpy ([2]; x2 = 0.2) of the same compound?
A: 0.123 ± 0.00382 kcal/mol

Q: And the excess molar enthalpy ([2]; x2 = 0.25)?
A: 0.129 ± 0.00406 kcal/mol

Q: And the excess molar enthalpy ([2]; x2 = 0.2999)?
A: 0.133 ± 0.00406 kcal/mol

Q: And the excess molar enthalpy ([2]; x2 = 0.35)?
A: 0.134 ± 0.00406 kcal/mol

Q: And the excess molar enthalpy ([2]; x2 = 0.4001)?
A: 0.131 ± 0.00406 kcal/mol

Q: What about the excess molar enthalpy ([2]; x2 = 0.4501) of the same compound?
A: 0.126 ± 0.00406 kcal/mol

Q: And the excess molar enthalpy ([2]; x2 = 0.5)?
A: 0.12 ± 0.00382 kcal/mol

Q: What about the excess molar enthalpy ([2]; x2 = 0.55) of the same compound?
A: 0.112 ± 0.00359 kcal/mol

Q: And the excess molar enthalpy ([2]; x2 = 0.6001)?
A: 0.102 ± 0.00311 kcal/mol

Q: What about the excess molar enthalpy ([2]; x2 = 0.6501) of the same compound?
A: 0.0909 ± 0.00287 kcal/mol

Q: What about the excess molar enthalpy ([2]; x2 = 0.7) of the same compound?
A: 0.0788 ± 0.00239 kcal/mol

Q: And the excess molar enthalpy ([2]; x2 = 0.7501)?
A: 0.0665 ± 0.0021 kcal/mol

Q: What about the excess molar enthalpy ([2]; x2 = 0.7999) of the same compound?
A: 0.0535 ± 0.0017 kcal/mol

Q: What about the excess molar enthalpy ([2]; x2 = 0.85) of the same compound?
A: 0.0399 ± 0.00127 kcal/mol

Q: What about the excess molar enthalpy ([2]; x2 = 0.8999) of the same compound?
A: 0.0261 ± 0.00086 kcal/mol

Q: What about the excess molar enthalpy ([2]; x2 = 0.95) of the same compound?
A: 0.011 ± 0.00055 kcal/mol

Q: For `CCCCO` [butan-1-ol], which mass density [1] is on record?
A: 805.74 ± 0.35 kg/m3

Q: Which results are given for `CCCCCC` [hexane] + CCO?
A: excess molar enthalpy ([2]; x2 = 0.0544): 0.0669 ± 0.0021 kcal/mol; excess molar enthalpy ([2]; x2 = 0.1056): 0.0992 ± 0.00311 kcal/mol; excess molar enthalpy ([2]; x2 = 0.1538): 0.115 ± 0.00359 kcal/mol; excess molar enthalpy ([2]; x2 = 0.1994): 0.126 ± 0.00382 kcal/mol; excess molar enthalpy ([2]; x2 = 0.2426): 0.132 ± 0.00406 kcal/mol; excess molar enthalpy ([2]; x2 = 0.2835): 0.136 ± 0.0043 kcal/mol; excess molar enthalpy ([2]; x2 = 0.3592): 0.139 ± 0.0043 kcal/mol; excess molar enthalpy ([2]; x2 = 0.4277): 0.136 ± 0.0043 kcal/mol; excess molar enthalpy ([2]; x2 = 0.4596): 0.134 ± 0.0043 kcal/mol; excess molar enthalpy ([2]; x2 = 0.49): 0.135 ± 0.0043 kcal/mol; excess molar enthalpy ([2]; x2 = 0.5191): 0.133 ± 0.00406 kcal/mol; excess molar enthalpy ([2]; x2 = 0.5992): 0.122 ± 0.00382 kcal/mol; excess molar enthalpy ([2]; x2 = 0.6472): 0.116 ± 0.00359 kcal/mol; excess molar enthalpy ([2]; x2 = 0.7125): 0.106 ± 0.00335 kcal/mol; excess molar enthalpy ([2]; x2 = 0.8064): 0.0848 ± 0.00263 kcal/mol; excess molar enthalpy ([2]; x2 = 0.8997): 0.0535 ± 0.0017 kcal/mol; excess molar enthalpy ([2]; x2 = 0.9528): 0.0291 ± 0.000956 kcal/mol

Q: With `CCO` [ethanol] as the compound, how does the mass density [1] read?
A: 785.07 ± 0.33 kg/m3

Q: Which results are given for `CCN(CC)CC` [triethylamine] + CCCCCC?
A: excess molar enthalpy ([2]; x1 = 0.025): 0.00134 ± 0.000502 kcal/mol; excess molar enthalpy ([2]; x1 = 0.05): 0.00368 ± 0.000526 kcal/mol; excess molar enthalpy ([2]; x1 = 0.075): 0.00468 ± 0.000526 kcal/mol; excess molar enthalpy ([2]; x1 = 0.1): 0.007 ± 0.000526 kcal/mol; excess molar enthalpy ([2]; x1 = 0.15): 0.0104 ± 0.000526 kcal/mol; excess molar enthalpy ([2]; x1 = 0.2): 0.013 ± 0.00055 kcal/mol; excess molar enthalpy ([2]; x1 = 0.25): 0.0152 ± 0.00055 kcal/mol; excess molar enthalpy ([2]; x1 = 0.3): 0.0168 ± 0.000574 kcal/mol; excess molar enthalpy ([2]; x1 = 0.35): 0.0182 ± 0.000621 kcal/mol; excess molar enthalpy ([2]; x1 = 0.4): 0.019 ± 0.000645 kcal/mol; excess molar enthalpy ([2]; x1 = 0.45): 0.0193 ± 0.000645 kcal/mol; excess molar enthalpy ([2]; x1 = 0.5): 0.0196 ± 0.000669 kcal/mol; excess molar enthalpy ([2]; x1 = 0.6): 0.019 ± 0.000645 kcal/mol; excess molar enthalpy ([2]; x1 = 0.65): 0.0173 ± 0.000598 kcal/mol; excess molar enthalpy ([2]; x1 = 0.7): 0.0162 ± 0.000574 kcal/mol; excess molar enthalpy ([2]; x1 = 0.75): 0.0139 ± 0.00055 kcal/mol; excess molar enthalpy ([2]; x1 = 0.8): 0.0122 ± 0.00055 kcal/mol; excess molar enthalpy ([2]; x1 = 0.85): 0.00927 ± 0.000526 kcal/mol; excess molar enthalpy ([2]; x1 = 0.9): 0.00667 ± 0.000526 kcal/mol; excess molar enthalpy ([2]; x1 = 0.95): 0.00323 ± 0.000526 kcal/mol

Q: With `CCN(CC)CC` [triethylamine] + CCO as the compound, how does the excess molar enthalpy ([2]; x2 = 0.1116) read?
A: -0.0893 ± 0.00287 kcal/mol

Q: What about the excess molar enthalpy ([2]; x2 = 0.1621) of the same compound?
A: -0.134 ± 0.0043 kcal/mol

Q: And the excess molar enthalpy ([2]; x2 = 0.2096)?
A: -0.163 ± 0.00502 kcal/mol

Q: What about the excess molar enthalpy ([2]; x2 = 0.2542) of the same compound?
A: -0.197 ± 0.00598 kcal/mol

Q: And the excess molar enthalpy ([2]; x2 = 0.2963)?
A: -0.225 ± 0.00693 kcal/mol

Q: What about the excess molar enthalpy ([2]; x2 = 0.3361) of the same compound?
A: -0.243 ± 0.00765 kcal/mol

Q: What about the excess molar enthalpy ([2]; x2 = 0.4093) of the same compound?
A: -0.285 ± 0.00884 kcal/mol

Q: What about the excess molar enthalpy ([2]; x2 = 0.5056) of the same compound?
A: -0.319 ± 0.0098 kcal/mol

Q: What about the excess molar enthalpy ([2]; x2 = 0.5623) of the same compound?
A: -0.329 ± 0.0103 kcal/mol

Q: What about the excess molar enthalpy ([2]; x2 = 0.614) of the same compound?
A: -0.33 ± 0.0103 kcal/mol

Q: And the excess molar enthalpy ([2]; x2 = 0.7047)?
A: -0.313 ± 0.0098 kcal/mol

Q: And the excess molar enthalpy ([2]; x2 = 0.7991)?
A: -0.262 ± 0.00813 kcal/mol

Q: What about the excess molar enthalpy ([2]; x2 = 0.8477) of the same compound?
A: -0.219 ± 0.00693 kcal/mol

Q: And the excess molar enthalpy ([2]; x2 = 0.8774)?
A: -0.187 ± 0.00574 kcal/mol

Q: What about the excess molar enthalpy ([2]; x2 = 0.9052) of the same compound?
A: -0.153 ± 0.00478 kcal/mol

Q: And the excess molar enthalpy ([2]; x2 = 0.9311)?
A: -0.116 ± 0.00359 kcal/mol

Q: And the excess molar enthalpy ([2]; x2 = 0.9555)?
A: -0.0767 ± 0.00239 kcal/mol

Q: Which excess molar enthalpy ([2]; x2 = 0.0501) does the source give for `CCN(CC)CC` [triethylamine] + CCCCO here?
A: -0.0212 ± 0.000717 kcal/mol

Q: What about the excess molar enthalpy ([2]; x2 = 0.1) of the same compound?
A: -0.0787 ± 0.00239 kcal/mol

Q: And the excess molar enthalpy ([2]; x2 = 0.1502)?
A: -0.13 ± 0.00406 kcal/mol

Q: What about the excess molar enthalpy ([2]; x2 = 0.1999) of the same compound?
A: -0.156 ± 0.00478 kcal/mol

Q: What about the excess molar enthalpy ([2]; x2 = 0.2536) of the same compound?
A: -0.196 ± 0.00598 kcal/mol

Q: And the excess molar enthalpy ([2]; x2 = 0.3001)?
A: -0.228 ± 0.00717 kcal/mol

Q: What about the excess molar enthalpy ([2]; x2 = 0.3499) of the same compound?
A: -0.266 ± 0.00813 kcal/mol

Q: What about the excess molar enthalpy ([2]; x2 = 0.3999) of the same compound?
A: -0.282 ± 0.00884 kcal/mol

Q: And the excess molar enthalpy ([2]; x2 = 0.4499)?
A: -0.304 ± 0.00932 kcal/mol

Q: What about the excess molar enthalpy ([2]; x2 = 0.5) of the same compound?
A: -0.322 ± 0.01 kcal/mol

Q: And the excess molar enthalpy ([2]; x2 = 0.5499)?
A: -0.331 ± 0.0103 kcal/mol

Q: And the excess molar enthalpy ([2]; x2 = 0.5999)?
A: -0.336 ± 0.0103 kcal/mol

Q: And the excess molar enthalpy ([2]; x2 = 0.6499)?
A: -0.33 ± 0.0103 kcal/mol

Q: What about the excess molar enthalpy ([2]; x2 = 0.7001) of the same compound?
A: -0.315 ± 0.0098 kcal/mol

Q: And the excess molar enthalpy ([2]; x2 = 0.7501)?
A: -0.292 ± 0.00908 kcal/mol

Q: And the excess molar enthalpy ([2]; x2 = 0.7999)?
A: -0.259 ± 0.00813 kcal/mol

Q: And the excess molar enthalpy ([2]; x2 = 0.85)?
A: -0.219 ± 0.00669 kcal/mol

Q: And the excess molar enthalpy ([2]; x2 = 0.8999)?
A: -0.166 ± 0.00502 kcal/mol

Q: And the excess molar enthalpy ([2]; x2 = 0.9499)?
A: -0.0879 ± 0.00263 kcal/mol

Q: And the excess molar enthalpy ([2]; x2 = 0.9792)?
A: -0.0411 ± 0.00131 kcal/mol

Q: With `CCCCCC` [hexane] as the compound, how does the mass density [1] read?
A: 654.9 ± 0.47 kg/m3
